# Experimental data published in patent publication US20250214932A1, “T-TYPE CALCIUM CHANNEL MODULATORS COMPRISING AN AZASPIRONONANE CORE AND METHODS OF USE THEREOF” (Praxis Precision Medicines, Inc., priority 2022, published 2025).
# Like-named read-outs stand apart in the source and are kept apart here.
# Target: Human Cav3.1 (Homo sapiens (Human), UniProt O43497)
# Test: Human Cav3.1 calcium channel patch clamp assay (SyncroPatch 384PE, HEK-293 natClytin/TASK1+Cav3.1 cell line)
# Format: cell-based
# Experimental: Pulse generation and data collection were performed with PatchController384 V1.3.0 and DataController384 V1.2.1 (Nanion Technologies). Off-line analysis was performed using Excel and Graphpad Prism (V 8.4.2) with complete data files uploaded to Dotmatics. The access resistance and apparent membrane capacitance were estimated using built-in protocols. Current was recorded in whole cell configuration from a population of cells. The cells were lifted, triturated, and resuspended at 800,000 cells/ml. The cells were allowed to recover in the cell hotel prior to experimentation. Currents were recorded at room temperature. The external solution contained the following (in mM): NaCl 80, NMDG 60, KCl 4, MgCl2 1, CaCl2 6, glucose 5 and HEPES 10 (pH=7.4, Osmolarity ˜300 mOsm). The extracellular solution was used as the wash, reference and compound delivery solution. […] The compound plate was created at 2× concentrated in the extracellular solution. The compound was diluted to 1:2 when added to the recording well. The amount of DMSO in the extracellular solution was held constant at the level used for the highest tested concentration. For the voltage clamp experiments on Cav3.1, data were sampled at 10 KHz. After establishment of the seal and the passage in the whole cell configuration, the cells were held at −120 mV. Cav3.1 current was evoked using a 100 ms step to −20 mV (to measure resting state block), followed by a 1600 ms step to −65 mV and a second 100 ms step to −20 mV (to measure voltage dependent block). The voltage protocol was applied every 15 seconds in the absence and in the presence of the compounds under investigation. […] Current amplitude (pA) was measured in the peak 1 and 2. The average of last 3 sweeps of each liquid period (vehicle, compound under investigation, full block) was calculated. Nickel-sensitive current was used to calculate the % of inhibition in the presence of the compound under investigation.
# Pulse generation and data collection were performed with PatchController384 V1.3.0 and DataController384 V1.2.1 (Nanion Technologies). Off-line analysis was performed using Excel and Graphpad Prism (V 8.4.2) with complete data files uploaded to Dotmatics. The access resistance and apparent membrane capacitance were estimated using built-in protocols. Current was recorded in whole cell configuration from a population of cells.
# The cells were lifted, triturated, and resuspended at 800,000 cells/ml. The cells were allowed to recover in the cell hotel prior to experimentation. Currents were recorded at room temperature. The external solution contained the following (in mM): NaCl 80, NMDG 60, KCl 4, MgCl2 1, CaCl2 6, glucose 5 and HEPES 10 (pH=7.4, Osmolarity ˜300 mOsm). The extracellular solution was used as the wash, reference and compound delivery solution.
# The compound plate was created at 2× concentrated in the extracellular solution. The compound was diluted to 1:2 when added to the recording well. The amount of DMSO in the extracellular solution was held constant at the level used for the highest tested concentration. For the voltage clamp experiments on Cav3.1, data were sampled at 10 KHz. After establishment of the seal and the passage in the whole cell configuration, the cells were held at −120 mV. Cav3.1 current was evoked using a 100 ms step to −20 mV (to measure resting state block), followed by a 1600 ms step to −65 mV and a second 100 ms step to −20 mV (to measure voltage dependent block). The voltage protocol was applied every 15 seconds in the absence and in the presence of the compounds under investigation. […] Current amplitude (pA) was measured in the peak 1 and 2. The average of last 3 sweeps of each liquid period (vehicle, compound under investigation, full block) was calculated. Nickel-sensitive current was used to calculate the % of inhibition in the presence of the compound under investigation.
# [1] = patch clamp, HEK-293 natClytin/TASK1+Cav3.1 cells, class symbols, read-out: Human Cav3.1 IC50
# [2] = voltage dependent block (VDB), read-out: Cav3.1 (VDB) IC50
# Chain of Human Cav3.1 (O43497 whole entry): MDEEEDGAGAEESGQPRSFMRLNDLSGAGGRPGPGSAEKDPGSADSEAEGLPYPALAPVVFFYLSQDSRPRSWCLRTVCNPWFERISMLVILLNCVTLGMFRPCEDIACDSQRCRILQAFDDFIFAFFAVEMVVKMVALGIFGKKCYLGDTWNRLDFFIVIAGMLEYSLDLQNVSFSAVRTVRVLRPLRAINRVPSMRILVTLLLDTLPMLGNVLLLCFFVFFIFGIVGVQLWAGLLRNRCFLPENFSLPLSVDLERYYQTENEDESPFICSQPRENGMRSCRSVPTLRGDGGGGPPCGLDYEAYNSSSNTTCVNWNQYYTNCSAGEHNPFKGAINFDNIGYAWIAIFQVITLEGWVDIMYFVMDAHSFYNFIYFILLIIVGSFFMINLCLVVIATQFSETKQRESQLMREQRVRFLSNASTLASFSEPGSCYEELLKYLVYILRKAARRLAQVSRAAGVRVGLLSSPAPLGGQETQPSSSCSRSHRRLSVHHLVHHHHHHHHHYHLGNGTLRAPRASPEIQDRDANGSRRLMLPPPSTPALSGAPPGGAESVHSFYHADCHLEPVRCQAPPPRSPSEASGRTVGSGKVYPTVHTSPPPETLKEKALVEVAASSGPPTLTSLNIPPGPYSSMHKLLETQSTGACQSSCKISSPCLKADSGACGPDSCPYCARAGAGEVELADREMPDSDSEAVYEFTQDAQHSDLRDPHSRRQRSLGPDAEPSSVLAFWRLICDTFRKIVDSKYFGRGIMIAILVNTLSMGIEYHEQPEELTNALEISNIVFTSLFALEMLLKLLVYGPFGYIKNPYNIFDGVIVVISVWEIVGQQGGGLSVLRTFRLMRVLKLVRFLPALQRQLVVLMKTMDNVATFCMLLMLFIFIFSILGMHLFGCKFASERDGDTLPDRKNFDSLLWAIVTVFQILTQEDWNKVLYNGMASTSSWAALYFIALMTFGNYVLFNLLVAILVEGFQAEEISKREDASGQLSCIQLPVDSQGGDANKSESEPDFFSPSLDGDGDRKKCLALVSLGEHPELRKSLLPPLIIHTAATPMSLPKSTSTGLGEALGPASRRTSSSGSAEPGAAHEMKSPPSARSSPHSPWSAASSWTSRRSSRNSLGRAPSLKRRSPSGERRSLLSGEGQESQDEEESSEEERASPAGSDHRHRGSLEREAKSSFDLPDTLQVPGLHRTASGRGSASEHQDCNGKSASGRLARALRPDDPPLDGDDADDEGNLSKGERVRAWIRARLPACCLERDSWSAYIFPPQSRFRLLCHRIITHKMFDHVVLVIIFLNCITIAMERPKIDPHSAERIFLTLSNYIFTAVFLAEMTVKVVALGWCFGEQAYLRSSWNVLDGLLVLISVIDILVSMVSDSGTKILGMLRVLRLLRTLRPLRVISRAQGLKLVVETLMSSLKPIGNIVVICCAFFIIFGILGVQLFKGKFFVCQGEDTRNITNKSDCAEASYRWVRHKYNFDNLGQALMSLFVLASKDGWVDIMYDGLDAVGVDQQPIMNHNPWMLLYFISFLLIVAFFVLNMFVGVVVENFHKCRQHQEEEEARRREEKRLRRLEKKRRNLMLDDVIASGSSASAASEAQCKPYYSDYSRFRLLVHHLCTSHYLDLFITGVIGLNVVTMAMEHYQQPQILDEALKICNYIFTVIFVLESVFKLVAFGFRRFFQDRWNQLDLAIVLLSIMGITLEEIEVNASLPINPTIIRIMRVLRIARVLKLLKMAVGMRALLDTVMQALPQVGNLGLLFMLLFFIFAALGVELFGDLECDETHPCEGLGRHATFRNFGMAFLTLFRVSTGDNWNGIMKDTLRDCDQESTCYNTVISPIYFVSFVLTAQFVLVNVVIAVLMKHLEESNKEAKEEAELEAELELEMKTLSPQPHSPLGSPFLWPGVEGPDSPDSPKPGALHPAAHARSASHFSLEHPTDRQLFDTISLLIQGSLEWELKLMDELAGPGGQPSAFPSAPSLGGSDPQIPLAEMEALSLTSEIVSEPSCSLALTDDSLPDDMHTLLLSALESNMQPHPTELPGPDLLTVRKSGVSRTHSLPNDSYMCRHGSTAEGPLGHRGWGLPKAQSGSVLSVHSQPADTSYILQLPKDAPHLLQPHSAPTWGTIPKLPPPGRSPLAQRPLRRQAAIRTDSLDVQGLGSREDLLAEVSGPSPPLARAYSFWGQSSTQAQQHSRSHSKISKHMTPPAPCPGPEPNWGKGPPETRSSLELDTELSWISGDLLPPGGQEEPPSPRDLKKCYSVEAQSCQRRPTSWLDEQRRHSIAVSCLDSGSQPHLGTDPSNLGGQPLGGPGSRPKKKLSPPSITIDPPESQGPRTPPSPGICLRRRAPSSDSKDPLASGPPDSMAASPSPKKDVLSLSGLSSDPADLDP
Structure (SMILES),IC50 [1],IC50 [2]
O=C(Nc1cc(F)cc(Cl)c1)C1CCC2(CC1)CN(Cc1cccc(C(F)F)c1)C2 [Example 19],< 1000 nM,624 nM
O=C(Nc1cc(F)cc(C(F)F)c1)C1CCC2(CC1)CN(CC(=O)N1CCOCC13CC3)C2 [Example 42],–,703 nM
N#CC1(CN2CC3(CCC(C(=O)Nc4cc(F)cc(Cl)c4)CC3)C2)CCCCC1 [Example 98],–,352 nM
CC1(CCN2CC3(CCC(C(=O)Nc4cc(F)cc(C(F)F)c4)CC3)C2)CCC1 [Example 43],–,300 nM
CC(C)(C)C(O)CN1CC2(CCC(C(=O)NC34CC5CC(CC(C5)C3)C4)CC2)C1 (stereo not shown) [Example 152],–,583 nM
O=C(Nc1cccc(Cl)c1)C1CCC2(CC1)CN(CC(F)(F)C1CCCCC1)C2 [Example 101],–,488 nM
O=C(CN1CC2(CCC(C(=O)Nc3cccc(OC(F)F)c3)CC2)C1)NC1(C(F)(F)F)CCC1 [Example 109],–,231 nM
O=C(CN1CC2(CCC(C(=O)NC34CCC(CC3)C4)CC2)C1)NC1(C(F)(F)F)CC1 [Example 150],–,1960 nM
COc1cc(F)cc(NC(=O)C2CCC3(CC2)CN(CC2(C#N)CCCCC2)C3)c1 [Example 96],–,814 nM
O=C(CN1CC2(CCC(C(=O)Nc3ccc(F)c(C(F)(F)F)c3)CC2)C1)NC1(C(F)(F)F)CC1 [Example 126],–,723 nM
CC1(C)COCCN1C(=O)CN1CC2(CCC(C(=O)Nc3cc(F)cc(C(F)F)c3)CC2)C1 [Example 44],–,176 nM
O=C(Nc1cc(F)cc(Cl)c1)C1CCC2(CC1)CN(CCC1CCC(F)(F)CC1)C2 [Example 13],< 1000 nM,239 nM
N#CC1(CN2CC3(CCC(C(=O)NCc4cc(F)cc(Cl)c4)CC3)C2)CCCCC1 [Example 131],–,664 nM
CC(C)(NC(=O)CN1CC2(CCC(C(=O)Nc3cccc(C(F)(F)F)c3)CC2)C1)C(F)(F)F [Example 66],–,372 nM
N#CC1(CN2CC3(CCC(C(=O)Nc4cccc(Cl)c4)CC3)C2)CCC(F)(F)CC1 [Example 110],–,706 nM
N#CC1(CN2CC3(CCC(C(=O)Nc4cc(F)cc(Cl)c4)CC3)C2)CCOCC1 [Example 139],–,1370 nM
O=C(NC12CCC(CC1)CC2)C1CCC2(CC1)CN(CC1(O)CCC(F)(F)CC1)C2 [Example 155],–,606 nM
CC(C)(C)S(=O)(=O)CCN1CC2(CCC(C(=O)Nc3cccc(Cl)c3)CC2)C1 [Example 106],–,739 nM

Structure (SMILES),IC50 [1],IC50 [2]
O=C(CN1CC2(CCC(C(=O)Nc3cccc(Cl)c3)CC2)C1)NC1(C(F)(F)F)CCC1 [Example 105],–,204 nM
O=C(CN1CC2(CCC(C(=O)Nc3cccc(OC(F)F)c3)CC2)C1)NC1(C(F)(F)F)CC1 [Example 108],–,364 nM
CC(C)(C)NC(=O)CN1CC2(CCC(CNC(=O)c3cccc(Cl)c3)CC2)C1 [Example 145],–,569 nM
CN(C(=O)CN1CC2(CCC(C(=O)Nc3cc(F)cc(C(F)F)c3)CC2)C1)C1(C)CCC1 [Example 40],–,338 nM
COc1cc(F)cc(NC(=O)C2CCC3(CC2)CN(CC2(C#N)CCC(F)(F)CC2)C3)c1 [Example 97],–,550 nM
N#CC1(CN2CC3(CCC(C(=O)Nc4cc(F)cc(OC(F)F)c4)CC3)C2)CCCCC1 [Example 133],–,432 nM
O=C(Nc1cc(F)cc(C(F)F)c1)C1CCC2(CC1)CN(CC(=O)N1CCOCC1)C2 [Example 41],–,846 nM
Cc1cc(NC(=O)C2CCC3(CC2)CN(CC(=O)NC2(C(F)(F)F)CC2)C3)ccc1F [Example 132],–,400 nM
O=C(Nc1cc(F)cc(C(F)F)c1)C1CCC2(CC1)CN(CCNC(=O)C1(C(F)(F)F)CC1)C2 [Example 50],–,284 nM
N#CC1(CN2CC3(CCC(C(=O)Nc4cccc(Cl)c4)CC3)C2)CCCCC1 [Example 103],–,544 nM
N#CC1(CN2CC3(CCC(C(=O)Nc4cc(F)cc(C(F)F)c4)CC3)C2)CCCCC1 [Example 94],–,612 nM
O=C(Nc1cc(F)cc(C(F)F)c1)C1CCC2(CC1)CN(CC(F)(F)C1CCCCC1)C2 [Example 92],–,905 nM
O=C(Nc1cc(F)cc(Cl)c1)C1CCC2(CC1)CN(CC1CCC(F)(F)CC1)C2 [Example 61],–,440 nM
CC1(S(=O)(=O)NCCN2CC3(CCC(C(=O)Nc4cc(F)cc(C(F)F)c4)CC3)C2)CC1 [Example 76],–,550 nM
CN(CCN1CC2(CCC(C(=O)Nc3cc(F)cc(C(F)F)c3)CC2)C1)C(=O)C1(C)CC1 [Example 72],–,1040 nM
O=C(CN1CC2(CCC(CNC(=O)c3cc(F)cc(Cl)c3)CC2)C1)NC1(C(F)(F)F)CC1 [Example 143],–,373 nM
CC(C)(NC(=O)CN1CC2(CCC(C(=O)Nc3cccc(OC(F)F)c3)CC2)C1)C(F)(F)F [Example 69],–,235 nM
N#CC1(CN2CC3(CCC(C(=O)Nc4cc(F)cc(OC(F)F)c4)CC3)C2)CC1 [Example 135],–,1010 nM

# Second part, the compound after the results:
IC50 [1],IC50 [2],Structure (SMILES)
< 1000 nM,–,CC(C)(C)CCN1CC2(CCC(C(=O)Nc3cc(F)cc(Cl)c3)CC2)C1 [Example 22]
–,1080 nM,COc1cccc(NC(=O)C2CCC3(CC2)CN(CC(=O)NC(C)(C)C)C3)c1 [Example 75]
< 1000 nM,174 nM,CC(C)(C)NC(=O)CN1CC2(CCC(C(=O)Nc3cc(F)cc(Cl)c3)CC2)C1 [Example 25]
–,511 nM,CC(C)(C)NC(=O)CN1CC2(CCC(C(=O)Nc3cccc(C(F)F)c3)CC2)C1 [Example 62]
–,855 nM,CC(C)(C)S(=O)(=O)CCN1CC2(CCC(C(=O)Nc3cc(F)cc(C(F)F)c3)CC2)C1 [Example 87]
< 1000 nM,988 nM,CC(C)(C)c1coc(CN2CC3(CCC(C(=O)Nc4cc(F)cc(Cl)c4)CC3)C2)n1 [Example 20]
–,283 nM,O=C(CN1CC2(CCC(C(=O)Nc3cc(F)cc(Cl)c3)CC2)C1)NC1(C(F)F)CC1 [Example 140]
–,129 nM,COc1cc(NC(=O)C2CCC3(CC2)CN(CC(=O)NC(C)(C)C)C3)ccc1Cl [Example 157]
< 1000 nM,254 nM,CC(C)(C)NC(=O)CN1CC2(CCC(C(=O)Nc3cc(F)cc(C(F)(F)F)c3)CC2)C1 [Example 4]
< 1000 nM,612 nM,O=C(Nc1cc(F)cc(Cl)c1)C1CCC2(CC1)CN(Cc1ccc(F)cc1)C2 [Example 14]
< 1000 nM,< 78.2 nM,O=C(CN1CC2(CCC(C(=O)Nc3cc(F)cc(Cl)c3)CC2)C1)NC1CCCC1 [Example 21]
–,513 nM,CC(C)(C)OC(=O)CN1CC2(CCC(C(=O)Nc3cc(F)cc(Cl)c3)CC2)C1 [Example 56]
< 1000 nM,339 nM,CC(C)(C)CCN1CC2(CCC(C(=O)Nc3cc(F)cc(C(F)F)c3)CC2)C1 [Example 33]
< 1000 nM,467 nM,O=C(Nc1cc(F)cc(Cl)c1)C1CCC2(CC1)CN(Cc1cccc(Cl)c1)C2 [Example 23]
1000 to 10000 nM,–,O=C(Nc1cc(F)cc(Cl)c1)C1CCC2(CC1)CN(Cc1ccc(Cl)cc1)C2 [Example 11]
< 1000 nM,182 nM,CCC(C)(C)NC(=O)CN1CC2(CCC(C(=O)Nc3cc(F)cc(C(F)F)c3)CC2)C1 [Example 27]
–,597 nM,CC(C)(C)S(=O)(=O)CCN1CC2(CCC(C(=O)Nc3cc(F)cc(Cl)c3)CC2)C1 [Example 95]
< 1000 nM,170 nM,CC(C)(NC(=O)CN1CC2(CCC(C(=O)Nc3cc(F)cc(Cl)c3)CC2)C1)C(F)(F)F [Example 16]
< 1000 nM,112 nM,CC1(NC(=O)CN2CC3(CCC(C(=O)Nc4cc(F)cc(Cl)c4)CC3)C2)CCC1 [Example 12]
< 1000 nM,102 nM,CC1(NC(=O)CN2CC3(CCC(C(=O)Nc4cc(F)cc(C(F)F)c4)CC3)C2)CCC1 [Example 29]
–,529 nM,N#CC1(CN2CC3(CCC(C(=O)Nc4cc(F)cc(Cl)c4)CC3)C2)CC1 [Example 118]
